PMC4585333, “Novel Regulator of Acylated Ghrelin, CF801, Reduces Weight Gain, Rebound Feeding after a Fast, and Adiposity in Mice” (Frontiers in Endocrinology, 2015)
Entries after “also recorded” stand apart in the source; their conditions may differ.

Test system: plasma acylated ghrelin
Assay: Plasma acylated ghrelin in fasted mice (ELISA)
Format: in vivo, male C57BL/6J mice
Procedure: In general, male C57BL/6J mice (The Jackson Laboratory, Bar Harbor, ME, USA) weighing 20–25 g were used as experimental subjects. Throughout the duration of the studies, mice were housed under standard laboratory conditions and received ad libitum access to standard laboratory mouse chow and tap water. Lights in the facility were set to go on and off at 12 h intervals with the lights going on at 7:00 a.m. In some experiments, mice also had ad libitum access to a high-fat diet containing 60% caloric content from fat (TD 06414; Harlan Teklad, Indianapolis, IN, USA) in addition to regular chow to measure dietary preferences. All procedures were approved by the Carleton University Animal Care Committee and followed the guidelines of the Canadian Council on Animal Care.
Mice (n = 16) were singly housed and given free access to water and regular chow for a 4-day baseline period. After this, mice were assigned to one of three groups: vehicle (n = 5), CF801 low dose (n = 5; 11 μmol⋅kg^−1 – LD), or CF801 high dose (n = 6; 22 μmol⋅kg^−1 – HD). […] Food intake was then monitored every hour for 4 h to determine the effects of CF801 on rebound feeding. […]
Following the treatment or recovery periods, mice were killed by rapid decapitation and plasma and tissue samples were collected. […] Plasma acylated ghrelin for all animals was measured using an ELISA kit (Millipore).

GSAFLSPEHQRK KRRQRRR-NH2 [CF801]
plasma acylated ghrelin concentration, high dose (22 μmol⋅kg^−1 i.p. once daily for 4 days, after fast, vs vehicle, p < 0.05 Fisher LSD): statistically significant; also recorded: reduced levels of plasma acylated ghrelin | plasma acylated ghrelin concentration, dose dependence (i.p. once daily for 4 days, 11 and 22 μmol⋅kg^−1, F(2,24) = 2.90, p < 0.05, partial eta^2 = 0.22): dose-dependent decrease in plasma ghrelin concentrations
